The test system of assay [1] is NCI-H460 (lung carcinoma). Particulars: 48 h.
Text: (§1) IC50 is the concentration at which 50% growth inhibition is obtained and E max represents the efficacy of the compound at its maximum concentration, expressed as the maximum % cell inhibition achieved by the compound (see Section S6 and Figure S8 of the Supporting Information).
(§2) General method: cell lines and grown conditions
(§3) Non-small lung carcinoma NCI-H460, human colon carcinoma HCT-116, human glioma SF-268
(§4) and doxorubicin-resistance human mamma carcinoma NCI/ADR-RES cell lines, as well as
(§5) Eagle’s Minimal Essential Medium (EMEM) and RPMI1640 were purchased from the American Tissue Culture Collection (ATCC). Frozen cells were thawed in a 75 cm2 cell culture flask in RPMI
(§6) supplemented with 2 mM L-glutamine and 10% FBS and maintained at 37 °C in a 5% CO2
(§7) The inhibition of cell proliferation induced by the samples [1/Cu(II), 1 eq. cyclopeptide 1/3 eq. of
(§8) Cu(II); 2/Cu(II), 1 eq. cyclopeptide 2/5 eq. of Cu(II)]‚ was carried out by using MTT method for
(§9) HCT-116, NCI/ADR-RES and NCI-H460 cell lines. SF-268 cell growth inhibition induced by the
(§10) samples was assessed using a system based on crystal violet cell staining and subsequent
(§11) acetylation. Cells were seeded in a 96-well microplate (5000 cells/well for HCT-116, 10000
(§12) cells/well for SF-268 and 15000 cells/well for NCI/ADR-RES and NCI-H460 cell lines) in 100 μl
(§13) of growth medium and maintained at 37 °C for 24 h.
(§14) Then growth medium was replaced by fresh medium containing different concentrations of the
(§15) samples to be assayed and maintained at 37 °C in a 5% CO2 atmosphere for 48 h. After this
(§16) time, 10 μL MTT (5 mg/ml in PBS) were added to each well and maintained for 4 h at 37 °C in a
(§17) 5% CO2 atmosphere. Then 100 μL of 10% SDS in 0.01 M HCl were added to each well an
(§18) incubated for 12-14 h under the same experimental conditions. Absorbance due to formation
(§19) was detected in a Tecan infinity M1000 Pro reader using a wavelength of 595 nm. All assays
were performed with triplicate points.
b) Crystal violet cell staining
(§20) The samples dissolved in water were added, maintaining the same proportion of water in each
(§21) well (10%). After 72 h (at 37°C and in an atmosphere of 5% CO 2/95% air), the cells were fixed to
(§22) the plate with 10 μL of 11% glutaraldehyde solution, kept under agitation at room temperature,
(§23) for 15 minutes. Once fixed, the medium was removed and the cells were washed 3-4 times with
(§24) distilled water, followed by staining of the cells with 100 μL of a 0.1% crystal violet solution. This
(§25) solution was prepared by diluting 0.1g of crystal violet in 100 mL of buffer composed of 200 mM
(§26) phosphoric acid, 200 mM formic acid and 200 mM 2-(N-morpholino)-ethane sulphonic acid
(§27) (MES) at pH 6. The plate was kept shaking at room temperature for 15 minutes. The dye was
(§28) removed, washed 3-4 times with distilled water and dried. 100 μL of 10% acetic acid was then
(§29) added and kept under agitation for 15 minutes, at room temperature, so that the staining was
(§30) homogeneous in all wells. Finally, an absorbance reading of the plates was performed at a
(§31) wavelength of 595 nm (Tecan M1000 Infinite Pro). The assay was performed with triplicate points.
(§32) Data were expressed as the growth inhibition percentage calculated in basis on the equation: %
(§33) inhibition= 100 – [(AO × 100) / AT]. Where AT is the measured absorbance in wells containing
(§34) compounds and AO is the absorbance measured in blank wells (cells with medium and vehicle).
(§35) The inhibitory potency of compounds was calculated by constructing concentration-% growth
(§36) inhibition curves, and extrapolating IC50 values (concentration of compound that inhibits cells
In assay [2] the test system is NCI/ADR-RES (doxorubicin resistant ovarian carcinoma). Particulars: 48 h.
Text: as §1, §2, §3, §4, §5, §6, §7, §8, §9, §10, §11, §12, §13, §14, §15, §16, §17, §18, §19
were performed with triplicate points.
b) Crystal violet cell staining
as §20, §21, §22, §23, §24, §25, §26, §27, §28, §29, §30, §31, §32, §33, §34, §35, §36
The nature of assay [3]: Fluorescence titration of cyclopeptides with Cu(II) ions (DynaFit fit). The format is binding. Particulars: 2 μM cyclopeptide, 1 mM phosphate buffer, 10 mM NaCl, pH 6.5; 1: 1:2 model (cyclopeptide:metal); 2: simplified model with 1:1 and 2:1 species; read-out: global dissociation constant K D. An excerpt:
While the 2,2′-bipyridine ligand is known to be weakly emissive and for all practical purposes considered nonfluorescent, , the 5′-amido-[2,2′-bipyridine]-5-carboxamide unit in the βAlaBpy building block is highly emissive, displaying an intense emission band at c.a. 410 nm with a quantum yield of 0.37. Furthermore, the fluorescence of the βAlaBpy units is quenched upon coordination to a wide range of divalent transition metal ions. We exploited this property to monitor the coordinative properties of cyclopeptides 1 and 2 in the presence of labile Cu(II) ions in aqueous media. Thus, we measured the emission spectra of 2 μM solutions of the cyclopeptides 1 and 2 in 1 mM phosphate buffer and 10 mM NaCl, pH 6.5, upon excitation at 308 nm in the presence of increasing concentrations of Cu(II) ions. […] Therefore, the affinity of the first part of the titrations cannot be determined with this experiment as it is too strong. […]
5.2. Fluorescence titration experiments
Luminescence experiments were made with a Varian Cary Eclipse Fluorescence spectrophotometer coupled to a Cary Single Cell Peltier accessory (Agilent Technologies) temperature controller. […]
emission spectrum was recorded (λex= 308 nm; λem= 410 nm) after each addition. […]

For assay [4], the system named is SF-268 (human glioma). Particulars: 72 h.
Text: as §1, §2, §3, §4, §5, §6, §7, §8, §9, §10, §11, §12, §13, §14, §15, §16, §17, §18, §19
were performed with triplicate points.
b) Crystal violet cell staining
as §20, §21, §22, §23, §24, §25, §26, §27, §28, §29, §30, §31, §32, §33, §34, §35, §36

The IC50 is the concentration needed to halve the response being measured. Read a high IC50 as weaker potency in that assay.

*1 amine or outer side, *2 acyl side, *3 side chain or, on linkers, in order; H or OH if unused. Where a SMILES comes first, the peptide text is derived from it. [ ]: non-standard residue; d: D form. X1 = O=C(c1ccc(-c2ccc(N[*:1])cn2)nc1)[*:2]; βAla = NCCC(=O)O

In the case of `N=C(N)NCCC[C@@H]1NC(=O)c2ccc(nc2)-c2ccc(cn2)NC(=O)CCNC(=O)[C@H](CCCNC(=N)N)NC(=O)[C@H](CCCNC(=N)N)NC(=O)[C@H](CCCNC(=N)N)NC(=O)c2ccc(nc2)-c2ccc(cn2)NC(=O)CCNC(=O)[C@H](CCCNC(=N)N)NC(=O)[C@H](CCCNC(=N)N)NC1=O` [compound 1, cyclo-(βAlaBpy-Arg3)2] (cyclo([X1]RRR[βAla][X1]RRR[βAla])), the “E max (maximum % cell inhibition)” value in assay [1] came out at 32 ± 2%; in assay [2] it was 10 ± 2%; in assay [4], 45 ± 2%. In addition, the IC50 in assay [1], in assay [2] and in assay [4] was greater than 100 µM in each case. The Kd in assay [3] was 0.39 ± 0.19 µM.
